Values quoted from earlier work as cited in patent US12059317B2, “Multi-phase oral care compositions” (The Procter & Gamble Company, priority 2019, dated 2024).
Like-named read-outs stand apart in the source and are kept apart here.

Settings: for Solubility in Water (number of parts by weight per 100 parts by weight of water): hydrophilic bleaching agent particle of the composition, PVP complex value estimated from supplier data sheet on PVP K-30

NC(N)=O.OO [Urea Peroxide, Urea Hydrogen Peroxide Adduct]
Solubility in water (at 20 C, per Safety Data Sheet from supplier): 800 grams per liter | Solubility in water (footnote values from supplier data sheets / Wikipedia): 80 parts per 100 parts of water | Solubility in Water (number of parts by weight per 100 parts by weight of water): 80 parts by weight per 100 parts by weight of water | Solubility in Water (number of parts by weight per 100 parts by weight of water) (listed as urea peroxide): 80 parts by weight per 100 parts
